Patent US20090111822A1, “1,2,3-TRIAZOLE PYRROLIDINE DERIVATIVES AS MODULATORS OF MGLUR5” (AstraZeneca AB, priority 2007, published 2009)

How the values were obtained:
[1] = biological target: T1, human mGluR5d (Homo sapiens, UniProt P41594); assay: FLIPR assay, mGluR5 antagonism (intracellular calcium mobilization); format: cell-based; conditions: cells expressing human mGluR5d; read-out: FLIPR hmGluR5d
T1 construct: expressed in transfected cells; The culture medium holds Hygromycin B and Zeocin, which points to a stably transfected line
T1 sequence (P41594 21-942 isoform P41594-3 limits assumed): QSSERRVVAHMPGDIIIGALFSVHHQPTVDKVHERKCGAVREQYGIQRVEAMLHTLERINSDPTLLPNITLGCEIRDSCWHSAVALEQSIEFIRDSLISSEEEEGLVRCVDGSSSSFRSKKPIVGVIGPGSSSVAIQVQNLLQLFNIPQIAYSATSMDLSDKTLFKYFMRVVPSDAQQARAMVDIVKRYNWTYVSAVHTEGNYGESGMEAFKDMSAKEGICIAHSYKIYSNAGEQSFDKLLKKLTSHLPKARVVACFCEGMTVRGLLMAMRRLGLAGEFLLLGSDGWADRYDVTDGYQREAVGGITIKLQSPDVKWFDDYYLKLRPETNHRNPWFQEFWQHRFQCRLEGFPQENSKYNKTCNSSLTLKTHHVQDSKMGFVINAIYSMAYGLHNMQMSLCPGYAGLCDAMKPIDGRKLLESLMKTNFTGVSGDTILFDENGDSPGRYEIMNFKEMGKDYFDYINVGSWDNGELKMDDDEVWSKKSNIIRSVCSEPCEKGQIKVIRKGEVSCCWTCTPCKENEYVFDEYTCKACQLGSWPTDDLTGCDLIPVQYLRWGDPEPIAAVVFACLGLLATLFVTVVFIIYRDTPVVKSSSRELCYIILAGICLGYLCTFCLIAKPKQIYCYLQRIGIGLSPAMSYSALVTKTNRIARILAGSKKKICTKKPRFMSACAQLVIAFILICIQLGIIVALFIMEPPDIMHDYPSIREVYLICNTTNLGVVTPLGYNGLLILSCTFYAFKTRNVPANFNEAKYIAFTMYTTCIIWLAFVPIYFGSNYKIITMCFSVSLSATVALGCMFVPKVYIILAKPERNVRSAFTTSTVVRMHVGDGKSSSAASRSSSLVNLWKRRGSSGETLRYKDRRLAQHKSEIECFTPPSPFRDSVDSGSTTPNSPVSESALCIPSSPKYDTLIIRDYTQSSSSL
Description: Functional Assessment of mGluR5 Antagonism in Cell Lines Expressing mGluR5D
The properties of the compounds of the invention can be analyzed using standard assays for pharmacological activity. Examples of glutamate receptor assays are well known in the art as described in for example Aramori et al, Neuron 8:757 (1992), Tanabe et al., Neuron 8:169 (1992), Miller et al., J. Neuroscience 15: 6103 (1995), Balazs, et al., J. Neurochemistry 69:151 (1997). The methodology described in these publications is incorporated herein by reference. […]
Cells expressing human mGluR5d as described in WO97/05252 cultured in a mixture of high glucose DMEM with Glutamax (31966-021) (500 mL), 10% dialyzed fetal bovine serum (Hyclone #SH30079.03) (56 mL), 200 μg/mL Hygromycin B (Invitrogen 45-0430, 50 mg/mL) (2.2 mL), 200 μg/mL Zeocin (Invitrogen #R250-01; 100 mg/mL) (1.1 mL) are seeded at a density of 100,000 cells per well on collagen coated clear bottom 96-well plates with black sides and cells were allowed to adhere over night before experiments. […] The fluorescence signal is sampled 50 times at 1-second intervals followed by 3 samples at 5-second intervals immediately after each of the two additions. Responses are measured as the difference between the peak heights of the response to agonist, less the background fluorescence within the sample period. […]

[2] = Determination of brain to plasma ratio in rat; format: in vivo; conditions: brain and plasma, female Sprague Dawley rats, drug in brain over drug in plasma, read-out: Brain/Plasma Ratio of compound in Rat
Method: Brain to plasma ratios are estimated in female Sprague Dawley rats. The compound is dissolved in water or another appropriate vehicle. For determination of brain to plasma ratio the compound is administrated as a subcutaneous, or an intravenous bolus injection, or an intravenous infusion, or an oral administration. At a predetermined time point after the administration a blood sample is taken with cardiac puncture. The rat is terminated by cutting the heart open, and the brain is immediately retained. The blood samples are collected in heparinized tubes and centrifuged within 30 minutes, in order to separate the plasma from the blood cells. The plasma is transferred to 96-well plates and stored at −20° C. until analysis. The brains are divided in halt and each half is placed in a pre-tarred tube and stored at −20° C. until analysis. Prior to the analysis, the brain samples are thawed and 3 mL/g brain tissue of distilled water is added to the tubes. The brain samples are sonicated in an ice bath until the samples are homogenized. Both brain and plasma samples are precipitated with acetonitrile. After centrifugation, the supernatant is diluted with 0.2% formic acid. […] After reconstitution of the residuals the samples are ready for injection onto the HPLC column.

SMILES	IC50 [1]	Kp [2]
Cn1c(-c2ccncc2)nnc1N1CCC[C@@H]1c1cn(-c2cccc(Cl)c2)nn1 [Example 8.1, 4-(5-{(2R)-2-[1-(3-Chlorophenyl)-1H-1,2,3-triazol-4-yl]pyrrolidin-1-yl}-4-methyl-4H-1,2,4-triazol-3-yl)pyridine]	0.058 µM	0.03
Cn1c(-c2cccnc2)nnc1N1CCC[C@@H]1c1cn(-c2cccc(Cl)c2)nn1 [Example 8.2, 3-(5-{(2R)-2-[1-(3-chlorophenyl)-1H-1,2,3-triazol-4-yl]pyrrolidin-1-yl}-4-methyl-4H-1,2,4-triazol-3-yl)pyridine]	0.116 µM	< 0.015
